# Measurements: PubChem BioAssay AID2060888 (Molecular Pharmacology Branch, DTP, NCI, 2025)
# Several values for one entry are separate records, joined by “and”; a condition that tells them apart may be missing. Equal entries are not always repeated.
# System: 695427-040-R-J1-PDC complex spheroid viability
# Test: Anticancer human tumor 695427-040-R-J1-PDC patient-derived colon adenocarcinoma cell line growth inhibition [RAS]
# Details: for viability, T/C: stronger effect = lower value
# Outline: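 Multi-cell-type spheroids: tumor cells plus HUVEC endothelial cells and mesenchymal stem cells. RAS-pathway inhibitors were combined with targeted agents, each dosed in half-log steps down from clinical Cmax, or from 10 microM when Cmax was unknown.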
# [1] = curve of first compound, second compound 0.000949 µM
# [2] = curve of first compound, second compound 0.003 µM
# [3] = curve of first compound, second compound 0.00949 µM
# [4] = curve of first compound, second compound 0.03 µM
# [5] = curve of first compound, second compound 0.0949 µM
# [6] = curve of first compound, second compound 0.3 µM
# [7] = second compound 0.000949 µM, first compound 0.0316 µM
# [8] = second compound 0.000949 µM, first compound 0.1 µM
# [9] = second compound 0.000949 µM, first compound 0.316 µM
# [10] = second compound 0.000949 µM, first compound 1 µM
# [11] = second compound 0.003 µM, first compound 0.0316 µM
# [12] = second compound 0.003 µM, first compound 0.1 µM
# [13] = second compound 0.003 µM, first compound 0.316 µM
# [14] = second compound 0.003 µM, first compound 1 µM
# [15] = second compound 0.00949 µM, first compound 0.0316 µM
# [16] = second compound 0.00949 µM, first compound 0.1 µM
# [17] = second compound 0.00949 µM, first compound 0.316 µM
# [18] = second compound 0.00949 µM, first compound 1 µM
# [19] = second compound 0.03 µM, first compound 0.0316 µM
# [20] = second compound 0.03 µM, first compound 0.1 µM
# [21] = second compound 0.03 µM, first compound 0.316 µM
# [22] = second compound 0.03 µM, first compound 1 µM
# [23] = second compound 0.0949 µM, first compound 0.0316 µM
# [24] = second compound 0.0949 µM, first compound 0.1 µM
# [25] = second compound 0.0949 µM, first compound 0.316 µM
# [26] = second compound 0.0949 µM, first compound 1 µM
# [27] = second compound 0.3 µM, first compound 0.0316 µM
# [28] = second compound 0.3 µM, first compound 0.1 µM
# [29] = second compound 0.3 µM, first compound 0.316 µM
# [30] = second compound 0.3 µM, first compound 1 µM
# 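Further: viability read after seven days of drug exposure.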
# 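Wherever viability, T/C is given: 100% = DMSO vehicle control viability.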
smiles,measurement,setting,value
CC(=O)OC12COC1CC(O)C1(C)C(=O)C(O)C3=C(C)C(OC(=O)C(O)C(NC(=O)OC(C)(C)C)c4ccccc4)CC(O)(C(OC(=O)c4ccccc4)C21)C3(C)C (centres undefined) + C#Cc1c(F)ccc2cc(O)cc(-c3ncc4c(N5CC6CCC(C5)N6)nc(OCC56CCCN5CC(F)C6)nc4c3F)c12,IC50,"curve of first compound, second compound 0.0316 µM",> 10 µM
same,IC50,"curve of first compound, second compound 0.1 µM",> 10 µM
same,IC50,"curve of first compound, second compound 0.316 µM",> 10 µM
same,IC50,"curve of first compound, second compound 1 µM",> 10 µM
same,IC50,"curve of first compound, second compound 3.16 µM",< 0.0316 µM
same,IC50,"curve of first compound, second compound 10 µM",< 0.0316 µM
same,"viability, T/C","second compound 0.0316 µM, first compound 0.0316 µM",67.3%
same,"viability, T/C","second compound 0.0316 µM, first compound 0.1 µM",67%
same,"viability, T/C","second compound 0.0316 µM, first compound 0.316 µM",69.9%
same,"viability, T/C","second compound 0.0316 µM, first compound 1 µM",80.3%
same,"viability, T/C","second compound 0.0316 µM, first compound 3.16 µM",85.8%
same,"viability, T/C","second compound 0.0316 µM, first compound 10 µM",90.5%
same,"viability, T/C","second compound 0.1 µM, first compound 0.0316 µM",66.9%
same,"viability, T/C","second compound 0.1 µM, first compound 0.1 µM",70.5%
same,"viability, T/C","second compound 0.1 µM, first compound 0.316 µM",66%
same,"viability, T/C","second compound 0.1 µM, first compound 1 µM",80%
same,"viability, T/C","second compound 0.1 µM, first compound 3.16 µM",89.1%
same,"viability, T/C","second compound 0.1 µM, first compound 10 µM",87.7%
same,"viability, T/C","second compound 0.316 µM, first compound 0.0316 µM",70.7%
same,"viability, T/C","second compound 0.316 µM, first compound 0.1 µM",68%
same,"viability, T/C","second compound 0.316 µM, first compound 0.316 µM",64.8%
same,"viability, T/C","second compound 0.316 µM, first compound 1 µM",72.6%
same,"viability, T/C","second compound 0.316 µM, first compound 3.16 µM",76.8%
same,"viability, T/C","second compound 0.316 µM, first compound 10 µM",81.8%
same,"viability, T/C","second compound 1 µM, first compound 0.0316 µM",59.5%
same,"viability, T/C","second compound 1 µM, first compound 0.1 µM",59.1%
same,"viability, T/C","second compound 1 µM, first compound 0.316 µM",59%
same,"viability, T/C","second compound 1 µM, first compound 1 µM",58.8%
same,"viability, T/C","second compound 1 µM, first compound 3.16 µM",67.3%
same,"viability, T/C","second compound 1 µM, first compound 10 µM",61%
same,"viability, T/C","second compound 3.16 µM, first compound 0.0316 µM",47.6%
same,"viability, T/C","second compound 3.16 µM, first compound 0.1 µM",44.2%
same,"viability, T/C","second compound 3.16 µM, first compound 0.316 µM",42.4%
same,"viability, T/C","second compound 3.16 µM, first compound 1 µM",50.4%
same,"viability, T/C","second compound 3.16 µM, first compound 3.16 µM",49.7%
same,"viability, T/C","second compound 3.16 µM, first compound 10 µM",45.3%
same,"viability, T/C","second compound 10 µM, first compound 0.0316 µM",32.3%
same,"viability, T/C","second compound 10 µM, first compound 0.1 µM",30.4%
same,"viability, T/C","second compound 10 µM, first compound 0.316 µM",25.2%
same,"viability, T/C","second compound 10 µM, first compound 1 µM",32%
same,"viability, T/C","second compound 10 µM, first compound 3.16 µM",29.6%
same,"viability, T/C","second compound 10 µM, first compound 10 µM",30.1%
C[C@@H](NC(=O)c1ncnc(N)c1Cl)c1ncc(C(=O)Nc2cc(C(F)(F)F)c(Cl)cn2)s1,"viability, T/C",compound 0.0316 µM,105% [middle of 4 runs]
same,"viability, T/C",compound 0.1 µM,108% [middle of 4 runs]
same,"viability, T/C",compound 0.316 µM,115% and 99.1% and 103% (2×)
same,"viability, T/C",compound 1 µM,113% [middle of 4 runs]
same,"viability, T/C",compound 3.16 µM,99.6% [middle of 4 runs]
same,"viability, T/C",compound 10 µM,73.2% (2×) and 69.3% and 73.6%
same,IC50,curve of compound,> 10 µM
CCN1CCN(Cc2ccc(Nc3ncc(F)c(-c4cc(F)c5nc(C)n(C(C)C)c5c4)n3)nc2)CC1,"viability, T/C",compound 0.00316 µM,102% [middle of 4 runs]
same,"viability, T/C",compound 0.01 µM,84.3% [middle of 4 runs]
same,"viability, T/C",compound 0.0316 µM,92.2% [middle of 4 runs]
same,"viability, T/C",compound 0.1 µM,102% [middle of 4 runs]
same,"viability, T/C",compound 0.316 µM,98.7% [middle of 4 runs]
same,IC50,curve of compound,> 1 µM
Cc1nc(N2CCC3(CC2)COC(C)C3N)c(CO)nc1Sc1ccnc(N)c1Cl (centres undefined) + CCn1c(-c2cc(N3CCN(C)CC3)cnc2C(C)OC)c2c3cc(ccc31)-c1csc(n1)CC(NC(=O)C1CC1C)C(=O)N1CCCC(N1)C(=O)OCC(C)(C)C2,IC50,[1],3.42 µM
same,IC50,[2],1.23 µM
same,IC50,[3],0.613 µM
same,IC50,[4],0.117 µM
same,IC50,[5],< 0.0316 µM
same,IC50,[6],< 0.0316 µM
same,"viability, T/C",[7],98.8%
same,"viability, T/C",[8],93.1%
same,"viability, T/C",[9],84.9%
same,"viability, T/C",[10],79.5%
same,"viability, T/C","second compound 0.000949 µM, first compound 3.16 µM",49.7%
same,"viability, T/C","second compound 0.000949 µM, first compound 10 µM",26.9%
same,"viability, T/C",[11],86.3%
same,"viability, T/C",[12],76.7%
same,"viability, T/C",[13],52.7%
same,"viability, T/C",[14],53.2%
same,"viability, T/C","second compound 0.003 µM, first compound 3.16 µM",49.9%
same,"viability, T/C","second compound 0.003 µM, first compound 10 µM",32.6%
same,"viability, T/C",[15],71%
same,"viability, T/C",[16],69.8%
same,"viability, T/C",[17],49.6%
same,"viability, T/C",[18],50.9%
same,"viability, T/C","second compound 0.00949 µM, first compound 3.16 µM",33.9%
same,"viability, T/C","second compound 0.00949 µM, first compound 10 µM",30.6%
same,"viability, T/C",[19],63.9%
same,"viability, T/C",[20],42.9%
same,"viability, T/C",[21],48.2%
same,"viability, T/C",[22],32.4%
same,"viability, T/C","second compound 0.03 µM, first compound 3.16 µM",29.8%
same,"viability, T/C","second compound 0.03 µM, first compound 10 µM",17.7%
same,"viability, T/C",[23],46.5%
same,"viability, T/C",[24],40.5%
same,"viability, T/C",[25],25.2%
same,"viability, T/C",[26],29.1%
same,"viability, T/C","second compound 0.0949 µM, first compound 3.16 µM",23%
same,"viability, T/C","second compound 0.0949 µM, first compound 10 µM",18.9%
same,"viability, T/C",[27],27.5%
same,"viability, T/C",[28],32.3%
same,"viability, T/C",[29],28.7%
same,"viability, T/C",[30],27.7%
same,"viability, T/C","second compound 0.3 µM, first compound 3.16 µM",24.4%
same,"viability, T/C","second compound 0.3 µM, first compound 10 µM",16%
C=CC(=O)Nc1cc(Nc2nccc(-c3cn(C)c4ccccc34)n2)c(OC)cc1N(C)CCN(C)C + CCn1c(-c2cc(N3CCN(C)CC3)cnc2C(C)OC)c2c3cc(ccc31)-c1csc(n1)CC(NC(=O)C1CC1C)C(=O)N1CCCC(N1)C(=O)OCC(C)(C)C2,IC50,[1],0.523 µM
same,IC50,[2],0.363 µM
same,IC50,[3],0.147 µM
same,IC50,[4],0.0443 µM
same,IC50,[5],< 0.00316 µM
same,IC50,[6],< 0.00316 µM
same,"viability, T/C","second compound 0.000949 µM, first compound 0.00316 µM",104%
same,"viability, T/C","second compound 0.000949 µM, first compound 0.01 µM",91.1%
same,"viability, T/C",[7],75.1%
same,"viability, T/C",[8],82.8%
same,"viability, T/C",[9],58.1%
same,"viability, T/C",[10],37.1%
same,"viability, T/C","second compound 0.003 µM, first compound 0.00316 µM",103%
same,"viability, T/C","second compound 0.003 µM, first compound 0.01 µM",88.7%
same,"viability, T/C",[11],68%
same,"viability, T/C",[12],74%
same,"viability, T/C",[13],52.3%
same,"viability, T/C",[14],35.9%
same,"viability, T/C","second compound 0.00949 µM, first compound 0.00316 µM",91.7%
same,"viability, T/C","second compound 0.00949 µM, first compound 0.01 µM",78.3%
same,"viability, T/C",[15],68.9%
same,"viability, T/C",[16],54.4%
same,"viability, T/C",[17],41.5%
same,"viability, T/C",[18],24.6%
same,"viability, T/C","second compound 0.03 µM, first compound 0.00316 µM",58.9%
same,"viability, T/C","second compound 0.03 µM, first compound 0.01 µM",60.1%
same,"viability, T/C",[19],51.3%
same,"viability, T/C",[20],42.8%
same,"viability, T/C",[21],36.9%
same,"viability, T/C",[22],21.2%
same,"viability, T/C","second compound 0.0949 µM, first compound 0.00316 µM",46.6%
same,"viability, T/C","second compound 0.0949 µM, first compound 0.01 µM",45.7%
same,"viability, T/C",[23],34.2%
same,"viability, T/C",[24],36.9%
same,"viability, T/C",[25],24.4%
same,"viability, T/C",[26],17.3%
same,"viability, T/C","second compound 0.3 µM, first compound 0.00316 µM",33.3%
same,"viability, T/C","second compound 0.3 µM, first compound 0.01 µM",34.9%
same,"viability, T/C",[27],29.7%
same,"viability, T/C",[28],30.1%
same,"viability, T/C",[29],26.9%
same,"viability, T/C",[30],16.1%
